In BindingDB's records for doi:10.1021/jm00037a008 (Institute, 1994):

Columns and labels:
[1] = Evaluation for the inhibition of delta opioid binding to bovine striatal membranes by the affinity ligand 0.2 nM [3H]p-Cl-DPDPE
[2] = Evaluation for the inhibition of kappa opioid binding to bovine striatal membranes by the affinity ligand 1 nM [3H]U-69593

CN1CC[C@]23c4c5ccc(O)c4O[C@H]2C(=O)CC[C@@]3(NC(=O)CS)C1C5 [1N-[10-hydroxy-4-methyl-14-oxo-12-oxa-4-azapentacyclo[9.6.1.01,13.05,17.07,18]octadeca-7,9,11(18)-trien-17-yl]-2-sulfanylacetamide]
IC50 [1]: 12 nM
IC50 [2]: 41 nM
